Assay results as given in patent USRE45907E1, “Functionalized stilbene derivatives as improved vascular targeting agents” (OXiGENE, Inc., priority 2001, dated 2016).
Where a name gives a salt, the structure may show the parent alone. Read-outs that look alike come from different tables or passages of the source.

How the values were obtained:
[1] = assay type: cell-based
Method: Exponentially growing were treated with the following compounds for 1 hour and 5 days. Insoluble compounds were formulated in a small amount (0.3%) of DMSO for biological evaluation. Cell viability was determined by the calorimetric MTT assay using 3(4,5-dimethylthiazol-2-yl)-2,5-diphenyl-2H-tetrazolium bromide according to well-established procedures (see Berridge, et al. (1996) for a general protocol of this type of assay).

[2] = tested on: MHEC-5T hemangioendothelioma tumor; assay type: in vivo; details: 100 mg/kg single i.p. dose, 24 hours post-treatment, SCID mice with MHEC5-T tumor
Method: The vascular effects of the following compounds were assessed in tumor-bearing mice using a fluorescent-bead assay. A MHEC-5T hemangioendothelioma tumor model was established by subcutaneous injection of 0.5×10^6 cultured MHEC5-T cells into the right flank of Fox Chase CB-17 SCID mice and allowed to grow to a size of 300 mm^3 before i.p. injection with a single dose of saline control or compound. At 24 hours post-treatment, mice were i.v. injected with 0.25 ml of diluted FluoSphere beads (1:6 in physiological saline) in the tail vein, and sacrificed after 3 minutes. Tumor cryosections at a thickness of 8 um were directly examined using quantitative fluorescent microscopy. For quantification, image analysis of 3 sections from three tumor treated in each group were examined and vascular shutdown was expressed a vessel area per tissue area (mm^2) in percentage of the control.

tubulin = assay: Inhibition of tubulin polymerization; assay type: biochemical
human cancer cell lines = assay: MTT cytotoxicity of combretastatins and prodrugs (Table 1); assay type: cell-based
[3] = treated for 1 hour, read-out: IC50 @ 1 h
[4] = treated for 5 days, read-out: IC50 @ 5 days
[5] = 1 h, read-out: MTT Cytotoxicity (IC50) at 1 hour
[6] = 5 h, read-out: MTT Cytotoxicity (IC50) at 5 hours

Molecule | IC50 [1, 3] [nM] | IC50 [1, 4] [nM] | % Blood Flow Shutdown (100 mg/kg) [2] [%] | further results
3′,5′-Tetrasodium Phosphate-3,4,4′,5-tetramethoxy-(Z)-stilbene [ZSB-2B] | 25000 | 1000 | 65 | –
COc1ccc(/C=C\c2cc(OC)c(OC)c(OC)c2)c(O)c1O [CA-1, combretastatin A-1] | – | – | – | IC50 (tubulin): 2000 to 4000 nM; activity with tubulin (tubulin): active with tubulin; IC50 (human cancer cell lines; [5]): 10000 nM; IC50 (human cancer cell lines; [6]): 50 nM
COc1cc(/C=C\c2ccc(OC)c(OP(=O)(O)O)c2OP(=O)(O)O)cc(OC)c1OC [CA-1P] | – | – | – | IC50 (tubulin): > 40000 nM; activity with tubulin (tubulin): not active with tubulin; IC50 (human cancer cell lines; [5]): 3200 nM; IC50 (human cancer cell lines; [6]): 4.6 nM
COc1ccc(/C=C\c2cc(OC)c(OC)c(OC)c2)cc1O [CA-4, Combretastatin A-4] | – | – | – | IC50 (tubulin): […]; IC50 (human cancer cell lines; [5]): 100 nM; IC50 (human cancer cell lines; [6]): 50 nM
COc1ccc(/C=C\c2cc(OC)c(OC)c(OC)c2)cc1OP(=O)(O)O [CA-4P] | – | – | – | IC50 (tubulin): > 40000 nM; IC50 (human cancer cell lines; [5]): 800 nM; IC50 (human cancer cell lines; [6]): 2 nM
COc1ccc(/C=C\c2cc(OC)c(OC)c(OC)c2)cc1OP(=O)(O)OC1CCCCC1 [Oxi-com191, CA4P Cyclohexane Ester, Ammonium Salt] | 35000 | 130 | – | –
COc1ccc(/C=C\c2cc(OC)c(OC)c(OC)c2)cc1OP(=O)(O)OC [Oxi-com209, CA-4P Methyl Ester, Ammonium Salt] | 38000 | 70 | – | –
COc1ccc(/C=C\c2cc(OC)c(OC)c(OC)c2)c(N)c1N [ZSB-3B, 2′,3′-Damino-3,4,4′,5-tetramethoxy-(Z)-stilbene] | 2400 | 4.3 | – | –
COc1ccc(/C=C\c2cc(OC)c(OC)c(OC)c2)c(Br)c1O [ZSB-16, 2′-Bromo-3′-Hydroxy-3,4,4′,5-tetramethoxy-(Z)-stilbene] | 2000 | 6.7 | – | –
COc1ccc(/C=C\c2cc(OC)c(OC)c(OC)c2)c(O)c1Br [ZSB-26A, 2′ Hydroxy-3′-bromo-3,4,4′,5-tetramethoxy-(Z)-stilbene] | 3070 | 16 | – | –
COc1cc(/C=C\c2ccc(OC)c(OP(=O)([O-])[O-])c2OC)cc(OC)c1OC.[Na+].[Na+] [ZSB-27B, 3′-Disodium Phosphate-3,3′,4,4′,5-pentamethoxy-(Z)-stilbene] | – | – | 41 | –
COc1cc(/C=C\c2cc(OC)c(OC)c(OC)c2)c(I)cc1OP(=O)([O-])[O-].[Na+].[Na+] [ZSB-29B, 4′-Disodium Phosphate-2′-Iodo-3,4,5,5′-tetramethoxy-(Z)-stilbene] | – | – | 43 | –
COc1cc(OP(=O)([O-])[O-])c(/C=C\c2cc(OC)c(OC)c(OC)c2)cc1OP(=O)([O-])[O-].[Na+].[Na+].[Na+].[Na+] [ZSB-33B, 2′,5′-Tetrasodium Diphosphate-3,4,4′,5-tetramethoxy-(Z)-stilbene] | – | – | 51 | –
COc1ccc(/C=C\c2cc(OC)c(OC)c(OC)c2)c(N)c1 [ZSB-39B, 2′-Amino-3,4,4′,5-tetramethoxy-(Z)-stilbene] | – | – | 50 | –
COc1ccc(/C=C\c2cc(OC)c(OC)c(OC)c2)c(F)c1O [ZSB-41A, 2′-Fluoro-3′-Hydroxy-3,4,4′,5-tetramethoxy-(Z)-stilbene] | 8000 | 15 | – | –
COc1cc(/C=C\c2cc(O)c(OC)c([N+](=O)[O-])c2)cc(OC)c1OC [ZSB-43, 3′-Hydroxy, 5′-Nitro-3,4,4′,5-tetramethoxy-(Z)-stilbene] | 8000 | 1300 | – | –
COc1ccc(/C=C\c2cc(OC)c(OC)c(OC)c2)c(NC(=O)C(N)CO)c1 (centres unmarked) [ZSB-45, 2′serinamide-3,4,4′,5-tetramethoxy-(Z)-stilbene] | 10000 | 50 | 43 | –
COc1ccc(/C=C\c2cc(OC)c(OC)c(OC)c2)c(O)c1 [ZSB-46A, 2′-Hydroxy-3,4,4′,5-tetramethoxy-(Z)-stilbene] | 43000 | 68 | – | –
CA4P n-Octyl Ester, Ammonium Salt [Oxi-com210] | – | – | 89 | –
